{
  "source": "PubChem BioAssay (NCI)",
  "assay_in_all_cases": "NCI tumour cell line growth inhibition, 48 h",
  "key": {"U251 CNS": {"system": "U251 CNS"}, "SK-OV-3 ovarian": {"system": "SK-OV-3 ovarian"}, "SF-539 CNS": {"system": "SF-539 CNS"}, "OVCAR-8 ovarian": {"system": "OVCAR-8 ovarian"}, "KM12 colon": {"system": "KM12 colon"}, "K-562 leukemia": {"system": "K-562 leukemia"}, "SNB-19 CNS": {"system": "SNB-19 CNS"}, "NCI/ADR-RES ovarian": {"system": "NCI/ADR-RES ovarian"}, "HL-60(TB) leukemia": {"system": "HL-60(TB) leukemia"}, "SR leukemia": {"system": "SR leukemia"}, "UACC-257 melanoma": {"system": "UACC-257 melanoma"}, "SN12C renal": {"system": "SN12C renal"}, "UO-31 renal": {"system": "UO-31 renal"}, "NCI-H226 lung": {"system": "NCI-H226 lung"}, "CCRF-CEM leukemia": {"system": "CCRF-CEM leukemia"}, "UACC-62 melanoma": {"system": "UACC-62 melanoma"}, "HCT-116 colon": {"system": "HCT-116 colon"}, "A549 NSCLC": {"system": "A549 NSCLC"}, "OVCAR-4 ovarian": {"system": "OVCAR-4 ovarian"}, "MCF7 breast": {"system": "MCF7 breast"}, "SNB-75 CNS": {"system": "SNB-75 CNS"}, "SK-MEL-5 melanoma": {"system": "SK-MEL-5 melanoma"}, "RXF 393 renal": {"system": "RXF 393 renal"}, "MOLT-4 leukemia": {"system": "MOLT-4 leukemia"}, "OVCAR-3 ovarian": {"system": "OVCAR-3 ovarian"}, "HOP-62 NSCLC": {"system": "HOP-62 NSCLC"}, "PC-3 prostate": {"system": "PC-3 prostate"}},
  "note": "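These data come from cells grown in 96-well plates and exposed to compound for 48 hours at five concentrations. At the GI50, growth is halved. TGI: concentration producing complete growth inhibition.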",
  "data": [
    {"smiles": "NC(=O)c1cc(Br)cc(C2CCCCC2)c1O", "values": [
      {"measurement": "GI50", "setting": "U251 CNS", "result": 10.8, "unit": "µM"},
      {"measurement": "TGI", "setting": "U251 CNS", "result": 23, "unit": "µM"},
      {"measurement": "GI50", "setting": "SK-OV-3 ovarian", "result": 17.2, "unit": "µM"},
      {"measurement": "TGI", "setting": "SK-OV-3 ovarian", "result": 31.1, "unit": "µM"},
      {"measurement": "GI50", "setting": "SF-539 CNS", "result": 15.2, "unit": "µM"},
      {"measurement": "TGI", "setting": "SF-539 CNS", "result": 30.2, "unit": "µM"},
      {"measurement": "GI50", "setting": "OVCAR-8 ovarian", "result": 14.4, "unit": "µM"},
      {"measurement": "TGI", "setting": "OVCAR-8 ovarian", "result": 30, "unit": "µM"},
      {"measurement": "GI50", "setting": "KM12 colon", "result": 11.7, "unit": "µM"},
      {"measurement": "TGI", "setting": "KM12 colon", "result": 24.5, "unit": "µM"},
      {"measurement": "GI50", "setting": "K-562 leukemia", "result": 14.4, "unit": "µM"},
      {"measurement": "TGI", "setting": "K-562 leukemia", "result": 34.5, "unit": "µM"},
      {"measurement": "GI50", "setting": "SNB-19 CNS", "result": 13.8, "unit": "µM"},
      {"measurement": "TGI", "setting": "SNB-19 CNS", "result": 27.9, "unit": "µM"},
      {"measurement": "GI50", "setting": "NCI/ADR-RES ovarian", "result": 11, "unit": "µM"},
      {"measurement": "TGI", "setting": "NCI/ADR-RES ovarian", "result": 23.9, "unit": "µM"},
      {"measurement": "GI50", "setting": "HL-60(TB) leukemia", "result": 20.9, "unit": "µM"},
      {"measurement": "TGI", "setting": "HL-60(TB) leukemia", "result": 46.3, "unit": "µM"},
      {"measurement": "GI50", "setting": "SR leukemia", "result": 14.2, "unit": "µM"},
      {"measurement": "TGI", "setting": "SR leukemia", "result": 34.6, "unit": "µM"},
      {"measurement": "GI50", "setting": "UACC-257 melanoma", "result": 16.3, "unit": "µM"},
      {"measurement": "TGI", "setting": "UACC-257 melanoma", "result": 30.1, "unit": "µM"},
      {"measurement": "GI50", "setting": "SN12C renal", "result": 12.2, "unit": "µM"},
      {"measurement": "TGI", "setting": "SN12C renal", "result": 25.1, "unit": "µM"},
      {"measurement": "GI50", "setting": "UO-31 renal", "result": 2.51, "unit": "µM"},
      {"measurement": "TGI", "setting": "UO-31 renal", "result": 18.3, "unit": "µM"},
      {"measurement": "GI50", "setting": "NCI-H226 lung", "result": 13.6, "unit": "µM"},
      {"measurement": "TGI", "setting": "NCI-H226 lung", "result": 31, "unit": "µM"},
      {"measurement": "GI50", "setting": "CCRF-CEM leukemia", "result": 15.1, "unit": "µM"},
      {"measurement": "TGI", "setting": "CCRF-CEM leukemia", "result": 39.8, "unit": "µM"},
      {"measurement": "GI50", "setting": "UACC-62 melanoma", "result": 11.5, "unit": "µM"},
      {"measurement": "TGI", "setting": "UACC-62 melanoma", "result": 23.9, "unit": "µM"},
      {"measurement": "GI50", "setting": "HCT-116 colon", "result": 12.5, "unit": "µM"},
      {"measurement": "TGI", "setting": "HCT-116 colon", "result": 25, "unit": "µM"},
      {"measurement": "GI50", "setting": "A549 NSCLC", "result": 13.4, "unit": "µM"},
      {"measurement": "TGI", "setting": "A549 NSCLC", "result": 27.1, "unit": "µM"},
      {"measurement": "GI50", "setting": "OVCAR-4 ovarian", "result": 12.9, "unit": "µM"},
      {"measurement": "TGI", "setting": "OVCAR-4 ovarian", "result": 25.6, "unit": "µM"},
      {"measurement": "GI50", "setting": "MCF7 breast", "result": 15.8, "unit": "µM"},
      {"measurement": "TGI", "setting": "MCF7 breast", "result": 30.8, "unit": "µM"},
      {"measurement": "GI50", "setting": "SNB-75 CNS", "result": 11.9, "unit": "µM"},
      {"measurement": "TGI", "setting": "SNB-75 CNS", "result": 25.9, "unit": "µM"},
      {"measurement": "GI50", "setting": "SK-MEL-5 melanoma", "result": 15.1, "unit": "µM"},
      {"measurement": "TGI", "setting": "SK-MEL-5 melanoma", "result": 28.9, "unit": "µM"},
      {"measurement": "GI50", "setting": "RXF 393 renal", "result": 6.44, "unit": "µM"},
      {"measurement": "TGI", "setting": "RXF 393 renal", "result": 22, "unit": "µM"},
      {"measurement": "GI50", "setting": "MOLT-4 leukemia", "result": 13.9, "unit": "µM"},
      {"measurement": "TGI", "setting": "MOLT-4 leukemia", "result": 34.5, "unit": "µM"},
      {"measurement": "GI50", "setting": "OVCAR-3 ovarian", "result": 13.2, "unit": "µM"},
      {"measurement": "TGI", "setting": "OVCAR-3 ovarian", "result": 25.9, "unit": "µM"},
      {"measurement": "GI50", "setting": "HOP-62 NSCLC", "result": 14.1, "unit": "µM"},
      {"measurement": "TGI", "setting": "HOP-62 NSCLC", "result": 28.4, "unit": "µM"},
      {"measurement": "GI50", "setting": "PC-3 prostate", "result": 12.8, "unit": "µM"},
      {"measurement": "TGI", "setting": "PC-3 prostate", "result": 26.4, "unit": "µM"}
    ]}
  ]
}
